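Exposure lasted 48 hours, with cells grown in 96-well plates and compounds tested at five concentrations. The concentration for full growth arrest is given as TGI.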 Where a SMILES comes first, the peptide text is derived from it. Bridges are numbered along the chain shown (N, C = ends). [ ]: non-standard residue; d: D form. The star is where a group is joined. ξ: configuration not given here. PhAc = O=C(Cc1ccccc1)*; ξP = O=C(O)C1CCCN1
Assays:
Experiment in all cases: DTP human tumour cell line panel, 48 h
[1] = system: 786-0 renal
[2] = system: A498 renal
[3] = system: A549 NSCLC
[4] = system: ACHN renal
[5] = system: CAKI-1 renal
[6] = system: CCRF-CEM leukemia
[7] = system: COLO 205 colon
[8] = system: DU-145 prostate
[9] = system: EKVX NSCLC
[10] = system: HCC-2998 colon
[11] = system: HCT-116 colon
[12] = system: HCT-15 colon
[13] = system: HL-60(TB) leukemia
[14] = system: HOP-62 NSCLC
[15] = system: HOP-92 NSCLC
[16] = system: HS 578T breast
[17] = system: HT29 colon
[18] = system: IGROV1 ovarian
[19] = system: KM12 colon
[20] = system: LOX IMVI melanoma
[21] = system: M14 melanoma
[22] = system: MALME-3M melanoma
[23] = system: MCF7 breast
[24] = system: MDA-MB-231 breast
[25] = system: MDA-MB-435
[26] = system: MDA-N
[27] = system: MOLT-4 leukemia
[28] = system: NCI-H226 lung
[29] = system: NCI-H23 lung
[30] = system: NCI-H460 lung
[31] = system: NCI/ADR-RES ovarian
[32] = system: OVCAR-3 ovarian
[33] = system: OVCAR-4 ovarian
[34] = system: OVCAR-5 ovarian
[35] = system: OVCAR-8 ovarian
[36] = system: PC-3 prostate
[37] = system: RXF 393 renal
[38] = system: SF-268 CNS
[39] = system: SF-295 CNS
[40] = system: SF-539 CNS
[41] = system: SK-MEL-2 melanoma
[42] = system: SK-MEL-28 melanoma
[43] = system: SK-MEL-5 melanoma
[44] = system: SK-OV-3 ovarian
[45] = system: SN12C renal
[46] = system: SNB-19 CNS
[47] = system: SNB-75 CNS
[48] = system: SR leukemia
[49] = system: SW-620 colon
[50] = system: T-47D breast
[51] = system: TK-10 renal
[52] = system: UACC-257 melanoma
[53] = system: UACC-62 melanoma
[54] = system: K-562 leukemia
[55] = system: NCI-H522 lung
[56] = system: RPMI-8226 leukemia
[57] = system: U251 CNS
[58] = system: UO-31 renal

For `O=C(Cc1ccccc1)N[C@@H]1COC(=O)C2CCCN2C(=O)[C@@H]2CCCN2C1=O` (some centres not stated) (PhAc-[dS]-Pro-[ξP]; ester 1-C), the TGI [1] was greater than 100 µM, the TGI [2] was greater than 100 µM and the TGI [3] was greater than 100 µM. It also gave a TGI [4] greater than 100 µM, a TGI [5] greater than 100 µM and a TGI [6] greater than 100 µM. The TGI [7] was greater than 100 µM, the TGI [8] was greater than 100 µM and the TGI [9] was greater than 100 µM. The TGI [10] was greater than 100 µM, the TGI [11] was greater than 100 µM and the TGI [12] was greater than 100 µM. For the same molecule, the TGI [13] was greater than 100 µM, the TGI [14] was greater than 100 µM and the TGI [15] was greater than 100 µM. It also gave a TGI [16] greater than 100 µM, a TGI [17] greater than 100 µM and a TGI [18] greater than 100 µM. The TGI [19] was greater than 100 µM, the TGI [20] was greater than 100 µM and the TGI [21] was greater than 100 µM. It also gave a TGI [22] greater than 100 µM, a TGI [23] greater than 100 µM and a TGI [24] greater than 100 µM. The TGI [25] was greater than 100 µM, the TGI [26] was greater than 100 µM and the TGI [27] was greater than 100 µM. The TGI [28] was greater than 100 µM, the TGI [29] was greater than 100 µM and the TGI [30] was greater than 100 µM. It also gave a TGI [31] greater than 100 µM, a TGI [32] greater than 100 µM and a TGI [33] greater than 100 µM. It also gave a TGI [34] greater than 100 µM, a TGI [35] greater than 100 µM and a TGI [36] greater than 100 µM. The TGI [37] was greater than 100 µM, the TGI [38] was greater than 100 µM and the TGI [39] was greater than 100 µM. The TGI [40] was greater than 100 µM, the TGI [41] was greater than 100 µM and the TGI [42] was greater than 100 µM. For the same molecule, the TGI [43] was greater than 100 µM, the TGI [44] was greater than 100 µM and the TGI [45] was greater than 100 µM. For the same molecule, the TGI [46] was greater than 100 µM, the TGI [47] was 4.79 µM and the TGI [48] was greater than 100 µM. It also gave a TGI [49] greater than 100 µM, a TGI [50] greater than 100 µM and a TGI [51] greater than 100 µM. For the same molecule, the TGI [52] was greater than 100 µM and the TGI [53] was greater than 100 µM.

`Cc1ccc2c(=O)cc(-c3ccc(Cl)cc3)[nH]c2n1` showed a TGI [1] greater than 100 µM, a TGI [2] greater than 100 µM and a TGI [3] greater than 100 µM. The TGI [4] was greater than 100 µM, the TGI [5] was greater than 65.9 µM and the TGI [6] was greater than 100 µM. The TGI [8] was greater than 55.4 µM, the TGI [9] was greater than 100 µM and the TGI [10] was greater than 63 µM. It also gave a TGI [11] greater than 32.1 µM, a TGI [12] greater than 41.3 µM and a TGI [13] of 8.8 µM. For the same molecule, the TGI [14] was greater than 100 µM, the TGI [15] was greater than 100 µM and the TGI [16] was greater than 100 µM. For the same molecule, the TGI [17] was greater than 29.4 µM, the TGI [18] was greater than 100 µM and the TGI [54] was 29.1 µM. For the same molecule, the TGI [19] was greater than 100 µM, the TGI [20] was greater than 100 µM and the TGI [21] was greater than 100 µM. For the same molecule, the TGI [22] was greater than 31.3 µM, the TGI [23] was greater than 100 µM and the TGI [24] was 19.7 µM. The TGI [25] was 5.5 µM, the TGI [26] was 5.56 µM and the TGI [27] was greater than 43.3 µM. It also gave a TGI [28] of 82 µM, a TGI [29] greater than 100 µM and a TGI [30] greater than 100 µM. The TGI [55] was greater than 100 µM, the TGI [31] was greater than 28.3 µM and the TGI [32] was greater than 30.2 µM. It also gave a TGI [33] greater than 100 µM, a TGI [34] greater than 100 µM and a TGI [35] greater than 100 µM. It also gave a TGI [36] greater than 20.8 µM, a TGI [56] greater than 49.1 µM and a TGI [37] greater than 100 µM. It also gave a TGI [38] greater than 100 µM, a TGI [39] of 53.8 µM and a TGI [40] of 36.8 µM. It also gave a TGI [41] greater than 100 µM, a TGI [42] greater than 100 µM and a TGI [43] of 14.6 µM. It also gave a TGI [44] greater than 100 µM, a TGI [45] greater than 94.8 µM and a TGI [46] greater than 100 µM. It also gave a TGI [47] greater than 27.9 µM, a TGI [48] greater than 100 µM and a TGI [49] greater than 100 µM. It also gave a TGI [50] of 26.3 µM, a TGI [51] greater than 100 µM and a TGI [57] greater than 59.9 µM. The TGI [52] was greater than 67.7 µM, the TGI [53] was greater than 100 µM and the TGI [58] was greater than 66.8 µM.

Molecule `Cc1[nH]n(-c2ncc(C#N)c(=O)[nH]2)c(=O)c1CCO` has a TGI [1] greater than 100 µM, a TGI [2] greater than 100 µM and a TGI [3] greater than 100 µM. For the same molecule, the TGI [4] was greater than 100 µM, the TGI [5] was greater than 100 µM and the TGI [6] was greater than 100 µM. The TGI [7] was greater than 100 µM, the TGI [8] was greater than 100 µM and the TGI [9] was greater than 100 µM. For the same molecule, the TGI [10] was greater than 100 µM, the TGI [11] was greater than 100 µM and the TGI [12] was greater than 100 µM. For the same molecule, the TGI [14] was greater than 100 µM, the TGI [15] was greater than 100 µM and the TGI [16] was greater than 100 µM. For the same molecule, the TGI [17] was greater than 100 µM, the TGI [18] was greater than 100 µM and the TGI [54] was greater than 100 µM. The TGI [19] was greater than 100 µM, the TGI [20] was greater than 100 µM and the TGI [21] was greater than 100 µM. For the same molecule, the TGI [22] was greater than 100 µM, the TGI [23] was greater than 100 µM and the TGI [24] was greater than 100 µM. The TGI [25] was greater than 100 µM, the TGI [26] was greater than 100 µM and the TGI [27] was greater than 100 µM. The TGI [28] was greater than 100 µM, the TGI [29] was greater than 100 µM and the TGI [30] was greater than 100 µM. For the same molecule, the TGI [55] was greater than 100 µM, the TGI [31] was greater than 100 µM and the TGI [32] was greater than 100 µM. For the same molecule, the TGI [33] was greater than 100 µM, the TGI [34] was greater than 100 µM and the TGI [35] was greater than 100 µM. The TGI [36] was greater than 100 µM, the TGI [56] was greater than 100 µM and the TGI [37] was greater than 100 µM. The TGI [38] was greater than 100 µM, the TGI [39] was greater than 100 µM and the TGI [40] was greater than 100 µM. It also gave a TGI [41] greater than 100 µM, a TGI [42] greater than 100 µM and a TGI [43] greater than 100 µM. For the same molecule, the TGI [44] was greater than 100 µM, the TGI [45] was greater than 100 µM and the TGI [46] was greater than 100 µM. The TGI [47] was 99 µM, the TGI [48] was greater than 100 µM and the TGI [49] was greater than 100 µM. For the same molecule, the TGI [50] was greater than 100 µM, the TGI [51] was greater than 100 µM and the TGI [57] was greater than 100 µM. For the same molecule, the TGI [52] was greater than 100 µM, the TGI [53] was greater than 100 µM and the TGI [58] was greater than 100 µM.

Reference: PubChem BioAssay (NCI)
